Data set [1] concerns the target Branched-chain alpha-ketoacid dehydrogenase kinase (Homo sapiens) (UniProt O14874). Description: Potency index, ratio of PF-07208254 IC50 to test compound IC50 for inhibition of human BDK using LBD-Tev-PhosphoPep/Lipoyl as substrate preincubated for 15 mins followed by substrate/ATP addition and measured after 90 mins by TR-FRET assay. In general terms: Time-resolved FRET reads energy transfer from a long-lived donor to a nearby acceptor.

The next data set in a line: physchem. The conditions noted are these: octanol/water.
For data set [2] the following is noted: human, hepatocytes, 4 h, 1 µM.
For data set [3], the target named is Branched-chain alpha-ketoacid dehydrogenase kinase (Homo sapiens) (UniProt O14874). The data set can be described thus: Potency index, ratio of PF-07208254 IC50 to test compound IC50 for inhibition of BDK in human skeletal myocyte using BCKDHA as substrate assessed as inhibition of substrate phosphorylation incubated for 60 mins by AlphaLISA surefire ultra assay. Background: Alpha assays give light when donor and acceptor beads are brought close together.

A short description of the next data set: in vitro. The conditions noted are these: dog, MDCK.
The conditions of data set [4]: human, hepatocytes, 4 h, 5 µM.
Another data set addresses Cytochrome P450 2C8 (Homo sapiens, UniProt P10632). Description: Reversible inhibition of human CYP2C8-mediated amodiaquine N-dealkylation in human liver microsomes using amodiaquine as substrate in presence of NADPH. It is filed as ADME, Microsome. In general terms: Microsomes from liver hold many membrane-bound enzymes, among them those of drug oxidation.
In data set [5] the target is Organic anion transporter 3 (Homo sapiens, UniProt Q8TCC7). Description: Inhibition of human OAT3 expressed in HEK293 cells using estrone-3-sulfate as substrate preincubated for 30 mins followed by substrate addition and measured after 1 to 4 mins. The class given is cell-based.
For data set [6], the target named is UDP-glucuronosyltransferase 2B4 (Homo sapiens, UniProt P06133). The data set can be described thus: Drug metabolism assessed as recombinant human UGT2B4-mediated (2S,3S,4S,5R)-6-((6-fluoro-3-(2,4,5-trifluoro-3-methoxyphenyl)benzo[b]thiophene-2-carbonyl)oxy)-3,4,5-trihydroxytetrahydro-2H-pyran-2-carboxylic acid metabolite formation at 1 uM. The class given is ADME. The conditions noted are these: recombinant enzyme.

Data set [7] concerns the target T1, Cytochrome P450 3A4 (Homo sapiens, UniProt P08684). The data set can be described thus: Reversible inhibition of human CYP3A4-mediated midazolam-1'-hydroxylation in human liver microsomes using midazolam as substrate in presence of NADPH. The class given is ADME, Microsome.
Data set [8] addresses Solute carrier family 22 member 2 (Homo sapiens, UniProt O15244). Description: Inhibition of human OCT2 expressed in HEK293 cells using [14C]metformin as substrate preincubated for 30 mins followed by substrate addition and measured after 1 to 4 mins. It is filed as cell-based.
Data set [9] concerns the target UDP-glucuronosyltransferase 1A9 (Homo sapiens, UniProt O60656). The data set can be described thus: Drug metabolism assessed as recombinant human UGT1A9-mediated (2S,3S,4S,5R)-6-((6-fluoro-3-(2,4,5-trifluoro-3-methoxyphenyl)benzo[b]thiophene-2-carbonyl)oxy)-3,4,5-trihydroxytetrahydro-2H-pyran-2-carboxylic acid metabolite formation at 1 uM. The conditions noted are these: recombinant enzyme. It is filed as ADME.

Data set [10] addresses UDP-glucuronosyltransferase 1A1 (Homo sapiens, UniProt P22309). The data set can be described thus: Drug metabolism assessed as recombinant human UGT1A1-mediated (2S,3S,4S,5R)-6-((6-fluoro-3-(2,4,5-trifluoro-3-methoxyphenyl)benzo[b]thiophene-2-carbonyl)oxy)-3,4,5-trihydroxytetrahydro-2H-pyran-2-carboxylic acid metabolite formation at 1 uM. The class given is ADME. The conditions noted are these: recombinant enzyme.

For data set [11], the target named is Multidrug and toxin extrusion protein 2 (Homo sapiens, UniProt Q86VL8). Description: Inhibition of human MATE2K expressed in HEK293 cells using [14C]metformin as substrate preincubated for 30 mins followed by substrate addition and measured after 1 to 4 mins. The class given is cell-based.
In a further data set the test system is Cytochrome P450. Description: Drug metabolism in human hepatocytes assessed as CYP450-catalyzed o-demethylation mediated 6-fluoro-3-(2,4,5-trifluoro-3-hydroxyphenyl)benzo[b]thiophene-2-carboxylic acid metabolite formation by mass spectrometric analysis. It is filed as ADME, cell-based, Hepatocyte.
Data set [12] concerns the target Solute carrier family 22 member 1 (Homo sapiens, UniProt O15245). Description: Inhibition of human OCT1 expressed in HEK293 cells using [14C]metformin as substrate preincubated for 30 mins followed by substrate addition and measured after 1 to 4 mins. The class given is cell-based.
In data set [13] the target is UDP-glucuronosyltransferase 1A3 (Homo sapiens, UniProt P35503). The data set can be described thus: Drug metabolism assessed as recombinant human UGT1A3-mediated (2S,3S,4S,5R)-6-((6-fluoro-3-(2,4,5-trifluoro-3-methoxyphenyl)benzo[b]thiophene-2-carbonyl)oxy)-3,4,5-trihydroxytetrahydro-2H-pyran-2-carboxylic acid metabolite formation at 1 uM. It is filed as ADME. The conditions noted are these: recombinant enzyme.

In the next data set the target is Cytochrome P450 3A5 (Homo sapiens, UniProt P20815). The data set can be described thus: Reversible inhibition of human CYP3A5-mediated nifedipine oxidation in human liver microsomes using nifedipine as substrate in presence of NADPH. It is filed as ADME, Microsome.
The target of a further data set is Cytochrome P450 1A2 (Homo sapiens, UniProt P05177). The data set can be described thus: Reversible inhibition of human CYP1A2-mediated phenacetin-O-dealkylation in human liver microsomes using phenacetin as substrate in presence of NADPH. The class given is ADME, Microsome.
A further data set addresses Cytochrome P450 2D6 (Homo sapiens, UniProt P10635). Description: Reversible inhibition of human CYP2D6-mediated dextromethorphan-O-demethylation in human liver microsomes using dextromethorphan as substrate in presence of NADPH. It is filed as ADME, Microsome.
Data set [14] has as its target Multidrug and toxin extrusion protein 1 (Homo sapiens, UniProt Q96FL8). The data set can be described thus: Inhibition of human MATE1 expressed in HEK293 cells using [14C]metformin as substrate preincubated for 30 mins followed by substrate addition and measured after 1 to 4 mins. The class given is cell-based.
The target in data set [15] is ATP-dependent translocase ABCB1 (Homo sapiens, UniProt P08183). Description: Inhibition of human MDR1 expressed in HEK293 cell vesicles using N-methylquinidine as substrate preincubated for 30 mins followed by substrate addition and measured after 1 to 4 mins. It is filed as subcellular, Vesicle.
The target in data set [16] is Branched-chain alpha-ketoacid dehydrogenase kinase (Mus musculus, UniProt O55028). Description: Inhibition of mouse BDK using LBD-Tev-PhosphoPep/Lipoyl as substrate preincubated for 15 mins followed by substrate/ATP addition and measured after 90 mins by TR-FRET assay.
In data set [17] the target is Solute carrier organic anion transporter family member 1B1 (Homo sapiens, UniProt Q9Y6L6). Description: Inhibition of human OATP1B1 expressed in HEK293 cells using rosuvastatin as substrate preincubated for 30 mins followed by substrate addition and measured after 1 to 4 mins. The class given is cell-based.
Another data set addresses Cytochrome P450 2C19 (Homo sapiens, UniProt P33261). Description: Reversible inhibition of human CYP2C19-mediated S-mephenytoin-4'-hydroxylation in human liver microsomes using S-mephenytoin as substrate in presence of NADPH. The class given is ADME, Microsome.
A further data set concerns the target Cytochrome P450 2C9 (Homo sapiens, UniProt P11712). Description: Reversible inhibition of human CYP2C9-mediated diclofenac-4'-hydroxylation in human liver microsomes using diclofenac as substrate in presence of NADPH. The class given is ADME, Microsome.
Data set [18] concerns the target Solute carrier family 22 member 6 (Homo sapiens, UniProt Q4U2R8). The data set can be described thus: Inhibition of human OAT1 expressed in HEK293 cells using p-aminohippuric acid as substrate preincubated for 30 mins followed by substrate addition and measured after 1 to 4 mins. It is filed as cell-based.
Data set [19] addresses UDP-glucuronosyltransferase 2B15 (Homo sapiens, UniProt P54855). Description: Drug metabolism assessed as recombinant human UGT2B15-mediated (2S,3S,4S,5R)-6-((6-fluoro-3-(2,4,5-trifluoro-3-methoxyphenyl)benzo[b]thiophene-2-carbonyl)oxy)-3,4,5-trihydroxytetrahydro-2H-pyran-2-carboxylic acid metabolite formation at 1 uM. As to conditions: recombinant enzyme. It is filed as ADME.

Data set [20] addresses T1, Cytochrome P450 3A4. The data set can be described thus: Reversible inhibition of human CYP3A4-mediated testosterone-6beta-hydroxylation in human liver microsomes using testosterone as substrate in presence of NADPH. The class given is ADME, Microsome.
The target of data set [21] is Solute carrier organic anion transporter family member 1B3 (Homo sapiens, UniProt Q9NPD5). The data set can be described thus: Inhibition of human OATP1B3 expressed in HEK293 cells using rosuvastatin as substrate preincubated for 30 mins followed by substrate addition and measured after 1 to 4 mins. It is filed as cell-based.
The target of a further data set is Cytochrome P450 2B6 (Homo sapiens, UniProt P20813). The data set can be described thus: Reversible inhibition of human CYP2B6-mediated bupropion hydroxylation in human liver microsomes using bupropion as substrate in presence of NADPH. It is filed as ADME, Microsome.
Data set [22] can be described thus: Retention time of compound in phosphate buffer at pH 7.4 measured after approximately 150 mins by HPLC-UV analysis. It is filed as physicochemical.
Data set [23] can be described thus: Drug degradation in phosphate/D2O buffer at pH 7.6 assessed as half-life by H1-NMR analysis. The class given is ADME.

In general, logD refers to lipophilicity at a set pH, counting ionised and neutral species. Read a high logD as higher lipophilicity. As usually defined, the Papp A→B is how fast a substance crosses the layer from the apical side. As a reminder, the IC50 is the concentration that inhibits the measured activity by half. What is called half-life is the time needed for the level to fall by half in the phase considered.

T1 sequence (P08684 whole entry): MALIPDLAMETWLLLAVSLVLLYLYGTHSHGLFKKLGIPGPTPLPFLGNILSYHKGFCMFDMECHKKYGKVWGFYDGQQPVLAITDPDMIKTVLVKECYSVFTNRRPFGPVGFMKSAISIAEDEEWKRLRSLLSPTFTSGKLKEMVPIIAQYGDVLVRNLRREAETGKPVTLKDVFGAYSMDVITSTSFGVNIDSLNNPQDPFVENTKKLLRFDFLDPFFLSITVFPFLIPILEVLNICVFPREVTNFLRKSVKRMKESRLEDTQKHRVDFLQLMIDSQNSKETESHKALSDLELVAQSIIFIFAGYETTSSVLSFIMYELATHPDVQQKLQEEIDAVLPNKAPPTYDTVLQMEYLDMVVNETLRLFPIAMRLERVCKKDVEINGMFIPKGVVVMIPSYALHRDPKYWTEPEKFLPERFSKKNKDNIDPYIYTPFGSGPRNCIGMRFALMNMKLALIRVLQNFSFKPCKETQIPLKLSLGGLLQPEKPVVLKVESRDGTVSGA
Cytochrome P450 2C8, sequence (P10632 whole entry): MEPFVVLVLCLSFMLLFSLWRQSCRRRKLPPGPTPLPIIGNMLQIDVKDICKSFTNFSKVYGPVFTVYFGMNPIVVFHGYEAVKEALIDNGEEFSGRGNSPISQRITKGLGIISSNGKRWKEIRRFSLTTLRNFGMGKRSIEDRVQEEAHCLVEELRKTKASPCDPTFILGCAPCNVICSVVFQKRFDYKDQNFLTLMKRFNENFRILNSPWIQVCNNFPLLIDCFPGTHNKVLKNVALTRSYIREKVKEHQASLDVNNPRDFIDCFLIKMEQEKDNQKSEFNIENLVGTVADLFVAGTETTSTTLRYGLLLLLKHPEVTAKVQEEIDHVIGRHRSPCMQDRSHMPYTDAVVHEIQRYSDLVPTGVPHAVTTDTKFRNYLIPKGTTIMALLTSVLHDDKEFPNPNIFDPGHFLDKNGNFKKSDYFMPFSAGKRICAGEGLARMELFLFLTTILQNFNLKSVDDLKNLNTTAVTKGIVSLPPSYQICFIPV
Cytochrome P450 2D6, sequence (P10635 whole entry): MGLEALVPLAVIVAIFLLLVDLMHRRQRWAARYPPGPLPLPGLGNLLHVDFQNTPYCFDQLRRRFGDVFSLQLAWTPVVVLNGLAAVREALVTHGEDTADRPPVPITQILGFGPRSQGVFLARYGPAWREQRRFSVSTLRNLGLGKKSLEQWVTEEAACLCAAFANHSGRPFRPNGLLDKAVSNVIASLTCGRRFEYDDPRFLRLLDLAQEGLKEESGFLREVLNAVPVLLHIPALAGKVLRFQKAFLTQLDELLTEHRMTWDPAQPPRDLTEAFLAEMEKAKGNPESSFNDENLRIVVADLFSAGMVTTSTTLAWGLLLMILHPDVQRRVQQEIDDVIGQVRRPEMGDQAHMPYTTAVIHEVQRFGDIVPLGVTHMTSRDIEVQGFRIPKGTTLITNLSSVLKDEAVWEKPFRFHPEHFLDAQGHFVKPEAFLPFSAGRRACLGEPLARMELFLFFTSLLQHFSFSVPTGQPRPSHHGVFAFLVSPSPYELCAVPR
Solute carrier family 22 member 1, sequence (O15245 whole entry): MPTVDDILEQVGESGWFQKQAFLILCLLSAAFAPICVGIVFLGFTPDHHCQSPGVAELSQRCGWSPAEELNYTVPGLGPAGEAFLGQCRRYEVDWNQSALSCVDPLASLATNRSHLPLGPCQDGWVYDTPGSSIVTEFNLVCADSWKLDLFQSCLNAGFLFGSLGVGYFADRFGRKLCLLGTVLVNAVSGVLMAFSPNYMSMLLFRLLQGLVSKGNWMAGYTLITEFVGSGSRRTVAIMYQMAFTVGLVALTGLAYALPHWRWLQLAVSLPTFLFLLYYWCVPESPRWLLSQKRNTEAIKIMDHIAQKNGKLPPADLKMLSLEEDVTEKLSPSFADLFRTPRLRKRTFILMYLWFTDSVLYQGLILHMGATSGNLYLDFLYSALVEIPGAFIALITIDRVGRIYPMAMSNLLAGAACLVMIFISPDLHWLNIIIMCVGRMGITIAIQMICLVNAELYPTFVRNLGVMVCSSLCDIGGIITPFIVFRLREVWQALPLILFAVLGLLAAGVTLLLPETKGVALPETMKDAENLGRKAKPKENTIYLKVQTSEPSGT
UDP-glucuronosyltransferase 2B4, sequence (P06133 whole entry): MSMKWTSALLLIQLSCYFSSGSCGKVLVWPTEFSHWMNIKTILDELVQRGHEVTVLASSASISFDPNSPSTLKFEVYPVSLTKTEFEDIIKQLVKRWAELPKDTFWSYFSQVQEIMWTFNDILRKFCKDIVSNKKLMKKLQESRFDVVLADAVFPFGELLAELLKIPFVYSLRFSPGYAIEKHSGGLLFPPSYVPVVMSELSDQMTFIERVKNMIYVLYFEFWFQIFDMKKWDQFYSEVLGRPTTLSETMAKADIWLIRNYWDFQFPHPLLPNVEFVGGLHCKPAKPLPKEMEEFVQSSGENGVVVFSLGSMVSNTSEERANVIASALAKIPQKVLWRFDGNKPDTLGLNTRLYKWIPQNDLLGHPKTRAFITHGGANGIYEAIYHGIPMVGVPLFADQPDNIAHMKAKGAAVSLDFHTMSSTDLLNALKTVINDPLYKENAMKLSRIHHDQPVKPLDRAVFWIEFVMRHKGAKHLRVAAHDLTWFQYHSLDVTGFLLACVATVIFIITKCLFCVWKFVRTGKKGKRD
Solute carrier family 22 member 6, sequence (Q4U2R8 whole entry): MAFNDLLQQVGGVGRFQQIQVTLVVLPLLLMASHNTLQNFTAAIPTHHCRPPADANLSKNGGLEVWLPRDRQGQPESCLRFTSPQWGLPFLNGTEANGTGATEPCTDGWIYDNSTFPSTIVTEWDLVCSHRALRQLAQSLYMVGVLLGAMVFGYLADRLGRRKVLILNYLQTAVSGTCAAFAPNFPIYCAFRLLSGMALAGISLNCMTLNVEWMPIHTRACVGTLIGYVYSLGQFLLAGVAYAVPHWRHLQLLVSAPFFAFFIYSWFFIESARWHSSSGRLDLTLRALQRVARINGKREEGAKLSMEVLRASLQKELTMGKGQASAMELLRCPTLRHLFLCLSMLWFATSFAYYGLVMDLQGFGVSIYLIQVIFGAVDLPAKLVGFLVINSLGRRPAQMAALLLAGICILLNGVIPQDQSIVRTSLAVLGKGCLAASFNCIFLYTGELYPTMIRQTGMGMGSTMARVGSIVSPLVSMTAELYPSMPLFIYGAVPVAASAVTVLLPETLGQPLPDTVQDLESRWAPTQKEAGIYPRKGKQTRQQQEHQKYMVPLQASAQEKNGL
Cytochrome P450 3A5, sequence (P20815 whole entry): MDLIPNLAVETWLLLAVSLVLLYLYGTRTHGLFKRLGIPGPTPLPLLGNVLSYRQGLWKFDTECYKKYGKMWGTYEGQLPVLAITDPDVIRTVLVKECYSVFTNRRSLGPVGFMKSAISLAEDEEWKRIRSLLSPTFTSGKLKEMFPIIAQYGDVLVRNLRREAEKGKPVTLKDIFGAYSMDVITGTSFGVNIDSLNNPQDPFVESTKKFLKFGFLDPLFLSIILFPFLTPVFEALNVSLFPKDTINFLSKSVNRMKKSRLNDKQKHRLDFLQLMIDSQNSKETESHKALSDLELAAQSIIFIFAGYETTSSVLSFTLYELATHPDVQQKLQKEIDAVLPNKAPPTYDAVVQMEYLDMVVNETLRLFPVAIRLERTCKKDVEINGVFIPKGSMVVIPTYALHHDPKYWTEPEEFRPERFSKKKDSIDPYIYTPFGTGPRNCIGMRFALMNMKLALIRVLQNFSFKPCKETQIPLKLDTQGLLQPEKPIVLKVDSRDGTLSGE
UDP-glucuronosyltransferase 1A9, sequence (O60656 whole entry): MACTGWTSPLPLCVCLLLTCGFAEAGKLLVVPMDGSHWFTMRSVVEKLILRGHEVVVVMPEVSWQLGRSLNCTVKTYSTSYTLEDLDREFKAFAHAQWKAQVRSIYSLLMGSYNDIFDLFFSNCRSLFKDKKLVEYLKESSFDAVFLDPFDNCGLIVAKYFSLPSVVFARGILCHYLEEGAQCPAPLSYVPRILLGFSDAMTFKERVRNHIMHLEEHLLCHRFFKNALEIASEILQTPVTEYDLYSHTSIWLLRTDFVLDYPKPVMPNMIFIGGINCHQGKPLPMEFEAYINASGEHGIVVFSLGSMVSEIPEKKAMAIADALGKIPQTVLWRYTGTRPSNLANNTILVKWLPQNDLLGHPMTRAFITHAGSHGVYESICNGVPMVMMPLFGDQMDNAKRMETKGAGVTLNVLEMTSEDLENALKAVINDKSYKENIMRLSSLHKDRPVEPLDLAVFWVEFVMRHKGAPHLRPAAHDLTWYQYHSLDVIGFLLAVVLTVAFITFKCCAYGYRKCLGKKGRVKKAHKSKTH
Multidrug and toxin extrusion protein 1, sequence (Q96FL8 whole entry): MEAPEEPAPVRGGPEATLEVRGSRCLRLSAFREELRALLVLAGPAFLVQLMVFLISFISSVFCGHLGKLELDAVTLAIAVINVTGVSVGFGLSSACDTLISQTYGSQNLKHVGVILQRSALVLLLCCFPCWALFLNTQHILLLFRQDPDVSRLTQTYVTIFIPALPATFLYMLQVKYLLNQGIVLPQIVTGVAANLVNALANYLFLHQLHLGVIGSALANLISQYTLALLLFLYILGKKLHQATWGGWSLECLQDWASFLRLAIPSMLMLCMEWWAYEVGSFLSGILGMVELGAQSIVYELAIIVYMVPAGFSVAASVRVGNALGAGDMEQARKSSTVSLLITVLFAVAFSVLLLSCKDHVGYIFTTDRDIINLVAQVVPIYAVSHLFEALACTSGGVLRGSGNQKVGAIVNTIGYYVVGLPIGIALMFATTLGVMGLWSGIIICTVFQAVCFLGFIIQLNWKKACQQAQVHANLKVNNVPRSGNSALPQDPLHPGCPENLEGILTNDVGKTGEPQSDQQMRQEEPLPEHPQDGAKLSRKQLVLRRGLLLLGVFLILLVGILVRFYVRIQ

As to `COc1c(F)cc(F)c(-c2c(C(=O)O)sc3cc(F)ccc23)c1F`, the Ratio IC50 in [1] came out at 7; in data set [3], 36. The compound further showed a logD in “physchem” of 1. For the same compound, in [2], the “CLH(app)” value is 21 µL/min. In the data set “in vitro”, the Papp A→B was found to be 20 ×10⁻⁶ cm/s.

For the compound `Cc1c(F)c(F)cc(-c2c(C(=O)O)sc3cc(F)ccc23)c1F`, the pH-dependent lipophilicity (logD) in the data set “physchem” was determined as 1.6. In the data set “in vitro”, this compound gave a Papp A→B of 11 ×10⁻⁶ cm/s.

Compound `O=C(O)c1sc2cc(F)sc2c1Cl` displayed a PB in [4] of 103 pmol. This compound returned a logD in “physchem” of 0.1. Moreover, in data set [2], the “CLH(app)” value is under 2.7 µL/min. Besides, the Papp A→B in “in vitro” came to 14 ×10⁻⁶ cm/s.

On to `COc1cccc(-c2c(C(=O)O)sc3cc(F)ccc23)c1`, for which the logD in “physchem” was 1.4. In addition, in data set [2], the “CLH(app)” value was found to be 32 µL/min. Besides, the Papp A→B in “in vitro” is 8.5 ×10⁻⁶ cm/s.

In the case of `COc1c(F)c(F)cc(-c2c(C(=O)O)sc3cc(F)ccc23)c1F`, the IC50 at Cytochrome P450 2C8 is 23.6 µM; in data set [5], 0.67 µM; on Cytochrome P450 3A4 [7], over 100 µM; in [8], over 80 µM; in data set [11], over 80 µM; in data set [12], over 80 µM. The 50% inhibitory concentration (IC50) at Cytochrome P450 3A5 is over 100 µM; on Cytochrome P450 1A2, 1.1 µM; at Cytochrome P450 2D6, over 100 µM; in data set [14], over 80 µM; in data set [15], over 80 µM; in data set [16], 0.041 µM. For the same compound, the IC50 is 4.5 µM in data set [17]; over 100 µM at Cytochrome P450 2C19; 1 µM at Cytochrome P450 2C9; 3.3 µM in data set [18]; over 100 µM on Cytochrome P450 3A4 [20]; over 80 µM in data set [21]. In addition, the IC50 on Cytochrome P450 2B6 was 6.7 µM. For the same compound, the Drug metabolism entry (in data set [6]; in data set [9]; in [10]; in the data set with Cytochrome P450; in data set [13]; in [19]) was “metabolite_detected” each time.

In turn, `O=C(O)c1sc2cc(Cl)ccc2c1Cl` came in with a logD in “physchem” of 0.7. In [2], the “CLH(app)” value worked out at 5.2 µL/min. The Papp A→B in “in vitro” is 31 ×10⁻⁶ cm/s.

Compound `COc1cccc(-c2c(C(=O)O)sc3cc(F)ccc23)c1F` came in with a logD in the data set “physchem” of 1. In [2], the “CLH(app)” value is 23 µL/min. Further, the Papp A→B in the data set “in vitro” is 28 ×10⁻⁶ cm/s.

Compound `COc1c(F)ccc(-c2c(C(=O)O)sc3cc(F)ccc23)c1F` displayed a logD in the data set “physchem” of 1.1. The “CLH(app)” value in [2] was found to be 26 µL/min. Further, in “in vitro”, the Papp A→B was determined as 26 ×10⁻⁶ cm/s.

`O=C(O)c1sc2cc(F)ccc2c1-c1ccccc1`: the logD in “physchem” turned out to be 1.1. Moreover, the “CLH(app)” value in [2] amounted to 31 µL/min.

Compound `CCOc1c(F)ccc(-c2c(C(=O)O)sc3cc(F)ccc23)c1F` registered a logD in “physchem” of 1.5. In addition, in [2], the “CLH(app)” value was 43 µL/min. The Papp A→B in “in vitro” stood at 16 ×10⁻⁶ cm/s.

On to `CCc1c(F)c(F)cc(-c2c(C(=O)O)sc3cc(F)ccc23)c1F`, for which, in “physchem”, the logD worked out at 2.2. Also, in data set [2], the “CLH(app)” value was found to be 52 µL/min. In “in vitro”, the Papp A→B was determined as 11 ×10⁻⁶ cm/s.

For the compound `O=C(O)c1sc2cc(F)ccc2c1-c1cc(F)c(F)cc1F`, the logD in “physchem” was 1.3. In addition, the “CLH(app)” value in data set [2] was found to be 23 µL/min. Besides, in “in vitro”, the Papp A→B was 10 ×10⁻⁶ cm/s.

Take `COc1c(F)c(F)cc(-c2c(C(=O)OC3O[C@H](C(=O)O)[C@@H](O)[C@H](O)[C@H]3O)sc3cc(F)ccc23)c1F` (some centres undefined): the Retention_time in data set [22] is listed as 17.6 min. Moreover, the half-life in [23] is about 1.37 h.

With `O=C(O)c1sc2cc(F)ccc2c1Cl`, in the data set “physchem”, the logD amounted to 0.5. In data set [2], the “CLH(app)” value is under 2 µL/min. In “in vitro”, this compound registered a Papp A→B of 30 ×10⁻⁶ cm/s.
